# Assay results reported in US10654834B2 (Venenum Biodesign, LLC, priority 2016, dated 2020).
# Assays:
# [1] = biological target: T1, mouse TGR5 receptor (Mus musculus, UniProt Q80SS6); assay: Mouse TGR5 HTRF cAMP production assay (HEK293-EBNA cells, Cisbio cAMP HiRange kit); assay type: cell-based; details: HEK293-EBNA cells overexpressing mouse TGR5, HTRF cAMP assay
# T1 construct: host or cells: HEK293-EBNA (293 c18, ATCC CRL10852)
# T1 sequence (Q80SS6 1-329): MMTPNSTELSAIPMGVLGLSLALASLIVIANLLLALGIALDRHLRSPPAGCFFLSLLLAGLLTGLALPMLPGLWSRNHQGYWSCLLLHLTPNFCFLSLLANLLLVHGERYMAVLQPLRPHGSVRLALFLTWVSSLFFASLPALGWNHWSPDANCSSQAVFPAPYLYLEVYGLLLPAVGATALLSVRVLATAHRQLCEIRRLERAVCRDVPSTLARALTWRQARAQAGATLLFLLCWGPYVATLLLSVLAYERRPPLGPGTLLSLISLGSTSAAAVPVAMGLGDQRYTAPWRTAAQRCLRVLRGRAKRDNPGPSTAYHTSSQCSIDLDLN
# How it was run: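 HEK293-EBNA cells stably expressing mouse TGR5 (episomal vector) were suspended in serum-free DMEM with 500 μM IBMX and exposed to 12-point half-log compound dilutions for 1 h at room temperature. cAMP was detected by HTRF (d2-cAMP/anti-cAMP cryptate, 1 h, room temperature), giving EC50 from duplicates.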
# [2] = biological target: T2, human TGR5 receptor (Homo sapiens, UniProt Q8TDU6); assay: Human TGR5 cAMP production assay (hTGR5-CHO cells, DiscoveRx cAMP XS+ kit); assay type: cell-based; details: luminescent cAMP assay, read-out: Human TGR5 Lum. cAMP Activity (EC50)
# T2 construct: host or cells: CHO-K1 (hTGR5-CHO)
# T2 sequence (Q8TDU6 1-330): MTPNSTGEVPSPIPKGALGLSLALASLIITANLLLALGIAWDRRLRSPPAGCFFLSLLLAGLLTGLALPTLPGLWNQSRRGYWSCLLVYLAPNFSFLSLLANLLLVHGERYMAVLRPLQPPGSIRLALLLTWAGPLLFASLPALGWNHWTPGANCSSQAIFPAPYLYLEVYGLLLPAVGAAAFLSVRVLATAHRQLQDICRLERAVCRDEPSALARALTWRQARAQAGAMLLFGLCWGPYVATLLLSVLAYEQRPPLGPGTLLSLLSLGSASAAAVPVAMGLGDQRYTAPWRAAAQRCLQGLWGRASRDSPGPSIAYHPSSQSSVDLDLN
# How it was run: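 CHO-K1 cells stably expressing hTGR5, in PBS with IBMX and cAMP antibody, treated with half-log compound dilutions for 1 h at room temperature. cAMP measured by enzyme-fragment complementation luminescence after overnight detection; EC50 values reported.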
# [3] = Pharmacokinetic profile in mice after oral gavage; assay type: in vivo, mouse; details: mouse; fasted male Hilltop mice, 10 mg/kg oral gavage, plasma; read-out: Cmax
# Method: Pharmacokinetic Profile in Mice
# In this series of studies, the pharmacokinetic profile characteristics of compounds of the present invention were evaluated. The plasma concentration levels of the compounds were monitored in the blood stream (i.e., plasma) after oral gavage using Cmax, and area under the curve (AUC).
# 8 week old male Hilltop mice were fasted overnight. Animals were randomized into groups (n=9) by body weight. Mice were dosed with 10 mg/kg compound (in 20% PEG400/80% 0.5% carboxymethylcellulose (medium viscosity)+0.25% Tween-80) at a volume of […] through oral gavage. Blood was collected via orbital bleeding at 0, 0.25, 0.5, 1, 2, and 4 h post-dose, with no one mouse having more than 3 blood draws. Blood was collected in EDTA coated tubes. Samples were stored at −20° C. until analysis.
# Quantitation of compound levels in plasma was accomplished by LC-MS/MS analysis. Standard curve and quality control samples were prepared in male CD-1 mouse plasma containing EDTA K^2+ as an anticoagulant at final concentrations ranging from 500 to 0.1 ng/mL. The plasma samples, calibration curve standards, and quality control samples were prepared in an identical method in a 96-well deep plate (1 mL) with a quenching solution (1:1 mixed acetonitrile:methanol containing the internal standard Reserpine @ 400 ng/mL). Low volume samples were supplemented with CD-1 mouse plasma. The plate was mixed on multi-tube vortexer for 1 min and centrifuged at 4000 rpm for 30 min at 4° C. (Sorvall® Super T21) before LC-MS/MS analysis. LC conditions were developed and optimized based on each compound as needed. The outlet of the column was coupled to AB Sciex 4000 QTrap Mass Spectrometer (AB Sciex, Brugg Switzerland). Detection was carried out using multiple reaction monitoring mode with positive-ion detection focusing. The pharmacokinetic parameters were derived from the plasma-time data and calculated using the standard non-compartmental method with WinNonlin (Pharsight, Mountain View, Calif.) or PK Solver (Comp. Meth. Prog. Biomed. (2010), 99, 306-314).
# Values reported are the mean plasma concentration of three mice. […]
SMILES,EC50 [1] [nM],EC50 [2] [nM],Cmax [3] [ng/mL]
"O=C(CCCC1CCN(c2cc(N3CCC[C@H]3C(=O)NCCc3ccc(C(F)(F)F)cc3)nc(C(F)(F)F)n2)CC1)NCCNc1ncnc2[nH]cnc12 [Compound 95, (S)-1-(6-(4-(4-((2-((9H-purin-6-yl)amino)ethyl)amino)-4-oxobutyl)piperidin-1-yl)-2-(trifluoromethyl)pyrimidin-4-yl)-N-(4-(trifluoromethyl)phenethyl)pyrrolidine-2-carboxamide]",< 100,< 100,2
"N#Cc1ccc(CCNC(=O)[C@@H]2CCN2c2cc(N3CCC(CCNc4c(NCCC(=O)O)c(=O)c4=O)CC3)nc(C(F)(F)F)n2)cc1 [Compound 301, (S)-3-((2-((2-(1-(6-(2-((4-cyanophenethyl)carbamoyl)azetidin-1-yl)-2-(trifluoromethyl)pyrimidin-4-yl)piperidin-4-yl)ethyl)amino)-3,4-dioxocyclobut-1-en-1-yl)amino)propanoic acid]",< 100,< 100,2.6
"N#Cc1ccc(CCNC(=O)[C@@H]2CCCN2c2cc(N3CCC(CCCC(=O)NCCNc4ncc(C(=O)O)cn4)CC3)nc(C(F)(F)F)n2)cc1 [Compound 98, (S)-2-((2-(4-(1-(6-(2-((4-cyanophenethyl)carbamoyl)pyrrolidin-1-yl)-2-(trifluoromethyl)pyrimidin-4-yl)piperidin-4-yl)butanamido)ethyl)-amino)pyrimidine-5-carboxylic acid]",< 100,< 100,12
"N=C(N)NCCC[C@H](NC(=O)CCCC1CCN(c2cc(N3CCC[C@H]3C(=O)NCCc3ccc(C(F)(F)F)cc3)nc(C(F)(F)F)n2)CC1)C(=O)O [Compound 74, (S)-5-guanidino-2-(4-(1-(2-(trifluoromethyl)-6-((S)-2-((4-(trifluoromethyl)phenethyl)carbamoyl)pyrrolidin-1-yl)pyrimidin-4-yl)piperidin-4-yl)butanamido)pentanoic acid]",< 100,< 100,3.6
"N#Cc1ccc(CCNC(=O)[C@@H]2CCCN2c2cc(N3CCC(CCNS(=O)(=O)CCNc4ncc(C(=O)O)cn4)CC3)nc(C(F)(F)F)n2)cc1 [Compound 117, (S)-2-((2-(N-(2-(1-(6-(2-((4-cyanophenethyl)carbamoyl)pyrrolidin-1-yl)-2-(trifluoromethyl)pyrimidin-4-yl)piperidin-4-yl)ethyl)sulfamoyl)ethyl)amino)-pyrimidine-5-carboxylic acid]",< 100,< 100,6.5
"O=C(CCCC1CCN(c2cc(N3CCC[C@H]3C(=O)NCCc3ccc(Cl)c(Cl)c3)nc(C(F)(F)F)n2)CC1)NCS(=O)(=O)O [Compound 136, (S)-(4-(1-(6-(2-((3,4-dichlorophenethyl)carbamoyl)pyrrolidin-1-yl)-2-(trifluoromethyl)pyrimidin-4-yl)piperidin-4-yl)butanamido)methanesulfonic acid]",< 100,< 100,59
"O=C(CCCC1CCN(c2cc(N3CC[C@H]3C(=O)NCCc3ccc(C(F)(F)F)cc3)nc(C(F)(F)F)n2)CC1)NCS(=O)(=O)O [Compound 255, (S)-(4-(1-(2-(trifluoromethyl)-6-(2-((4-(trifluoromethyl)phenethyl)carbamoyl)azetidin-1-yl)pyrimidin-4-yl)piperidin-4-yl)butanamido)methanesulfonic acid]",< 100,< 100,64
"N#Cc1ccc(CCNC(=O)[C@@H]2CCCN2c2cc(N3CCC(CCNC(=O)NCCOCCOCCOCCC(=O)O)CC3)nc(C(F)(F)F)n2)cc1 [Compound 364, (S)-1-(1-(6-(2-((4-cyanophenethyl)carbamoyl)pyrrolidin-1-yl)-2-(trifluoromethyl)pyrimidin-4-yl)piperidin-4-yl)-4-oxo-8,11,14-trioxa-3,5-diazaheptadecan-17-oic acid]",< 100,< 100,8
"O=C(O)CN1CCC(CCCC2CCN(c3cc(N4CC[C@H]4C(=O)NCCc4ccc(C(F)(F)F)cc4)nc(C(F)(F)F)n3)CC2)CC1 [Compound 281, (S)-2-(4-(3-(1-(2-(trifluoromethyl)-6-(2-((4-(trifluoromethyl)phenethyl)carbamoyl)-azetidin-1-yl)pyrimidin-4-yl)piperidin-4-yl)propyl)piperidin-1-yl)acetic acid]",< 100,< 100,92

# Now from value to molecule:
EC50 [1] [nM],EC50 [2] [nM],Cmax [3] [ng/mL],SMILES
< 100,< 100,2.5,"N#Cc1ccc(CCNC(=O)[C@@H]2CCCN2c2cc(N3CCC(CCNC(=O)N[C@@H](CCCNC(=N)N)C(=O)O)CC3)nc(C(F)(F)F)n2)cc1 [Compound 83, (S)-2-(3-(2-(1-(6-((S)-2-((4-cyanophenethyl)carbamoyl)pyrrolidin-1-yl)-2-(trifluoromethyl)pyrimidin-4-yl)piperidin-4-yl)ethyl)ureido)-5-guanidinopentanoic acid]"
< 100,< 100,2.8,"N#Cc1ccc(CCNC(=O)[C@@H]2CCCN2c2cc(N3CCC(CCCC(=O)N[C@H](CCCNC(=N)N)C(=O)O)CC3)nc(C(F)(F)F)n2)cc1 [Compound 73, (R)-2-(4-(1-(6-((S)-2-((4-cyanophenethyl)carbamoyl)pyrrolidin-1-yl)-2-(trifluoromethyl)pyrimidin-4-yl)piperidin-4-yl)butanamido)-5-guanidinopentanoic acid]"
< 100,< 100,51,"C[N+](C)(C)CCC[C@H](NC(=O)CCCC1CCN(c2cc(N3CCC[C@H]3C(=O)NCCc3ccc(C#N)cc3)nc(C(F)(F)F)n2)CC1)C(=O)O [Compound 105, (S)-4-carboxy-4-(4-(1-(6-((S)-2-((4-cyanophenethyl)carbamoyl)pyrrolidin-1-yl)-2-(trifluoromethyl)pyrimidin-4-yl)piperidin-4-yl)butanamido)-N,N,N-trimethylbutan-1-aminium]"
< 100,< 100,15,"N#Cc1ccc(CCNC(=O)[C@@H]2CCCN2c2cc(N3CCC(CCNC(=O)NCS(=O)(=O)O)CC3)nc(C(F)(F)F)n2)cc1 [Compound 79, (S)-(3-(2-(1-(6-(2-((4-cyanophenethyl)carbamoyl)pyrrolidin-1-yl)-2-(trifluoromethyl)pyrimidin-4-yl)piperidin-4-yl)ethyl)ureido)methanesulfonic acid]"
< 100,< 100,15,"N#Cc1ccc(CCNC(=O)[C@@H]2CCCN2c2cc(N3CCC(CCNS(=O)(=O)CCN)CC3)nc(C(F)(F)F)n2)cc1 [Compound 116, (S)-1-(6-(4-(2-(2-aminoethylsulfonamido)ethyl)piperidin-1-yl)-2-(trifluoromethyl)-pyrimidin-4-yl)-N-(4-cyanophenethyl)pyrrolidine-2-carboxamide]"
< 100,< 100,55,N#Cc1ccc(CCNC(=O)[C@@H]2CCCN2c2cc(N3CCC(OCC#CCO)CC3)nc(C(F)(F)F)n2)cc1 [Compound 26]
